≈ marks a conversion by molar mass, not a printed value. Read-outs that look alike come from different tables or passages of the source.
What was measured:
VPS34 activity = test: PD: GFP-2xFYVE puncta in H1299 tumors (immunohistochemistry); assay type: in vivo, mouse; conditions: 9 or 29 mg·kg^−1 oral, after 2 h
Method: The study was performed by Truly Translational AB (Lund, Sweden) following Swedish legislations and approved by the ethical committee Malmö/Lunds djurförsöksetiska nämnd (M120‐15). Animals were housed 5/cage in polysulfone IVC cages at a constant temperature with 12 h light‐dark cycles and free access to food, tap water, and cage enrichment. Animals were allowed to acclimatize to the housing conditions for at least a week before the start of experiments. Female 8‐week‐old NOD.Cg‐Prkdc^ scid Il2rg^ tm1Sug /JicTac (CIEA‐NOG®) mice (supplied by Taconic Biosciences, Rensselaer, NY, USA; n = 42) were implanted subcutaneously with 1.75 × 10^6 H1299‐GFP2xFYVE cells in serum‐free RPMI in 50% Matrigel. When tumors reached 300–400 mm^3 mice were randomized and dosed with 9 or 29 mg·kg^−1 SB02024 or vehicle (PEG 200 (98%)/Polysorbate (2%)). At indicated time points after dosing, blood samples were taken by heart puncture and tumors were removed. Pharmacokinetic (PK) analysis (plasma and tumor samples) was performed by Q&Q Labs (Gothenburg, Sweden). Plasma was precipitated with acetonitrile, and after centrifugation, the soluble material was recovered. […] SB02024 levels were determined using UHPLC‐QQQ: Agilent 6460 (LC–MS/MS; Agilent Technologies, Santa Clara, CA, USA). […] Each TMA block was sectioned and analyzed at eight equally spaced levels. […]

[1] = Plasma protein binding, human; assay type: in vitro ADME; conditions: unbound/free fraction, read-out: PPB (% unbound) human
Method: (§1) Experiments were conducted at Aragen Life Sciences Ltd. (Hyderabad, India) according to internal standard procedures.

Me30966 cells = test: Gene expression (qRT-PCR) in Me30966 cells; assay type: cell-based, human; conditions: 2 μM, 24 h, vs DMSO
Method: (A) IFNB1 gene expression quantified by qRT-PCR after 24h treatment with DMSO control or 2 µM of VPS34 inhibitor
(=VPS34i, SB02024 or SAR405) in Me30966 cells.

B16-F10 cells = test: IFN/cytokine gene expression (qRT-PCR) and secretion (MSD) in B16-F10 cells; assay type: cell-based, murine; conditions: 2 μM, 24 h, vs DMSO
Method: RNA was isolated using the PureLink kit (#12183018A; Thermo Fisher) and DNA‐binding columns (Rneasy plus kit, #74134; Qiagen) and/or Dnase treatment (#12185010; Thermo Fisher). After quantification using NanoDrop, 50 ng·μL^−1 RNA was used for cDNA synthesis with SuperScript IV VILO Master Mix (#11756050; Thermo Fisher). Quantitative RT‐PCR was run with diluted cDNA (1 : 25 or 1 : 12.5), PowerUp SYBR Green Master Mix (#A25741; Thermo Fisher), and 200 nM primers (see Table S3) on a CFX Connect RT‐PCR system (BioRad, Hercules, CA, USA). Data were analyzed using the ΔΔCT method.
Cell culture medium was centrifuged at 300 g for 10 min at 4 °C and supernatant stored at −80 °C. Mouse blood was collected at termination in K2‐EDTA tubes on ice, centrifuged at 1270 g for 10 min at 4 °C, and plasma was stored at −80 °C. Cytokine levels were quantified using Mesoscale Discovery (MSD) assays: human CCL5 (#F21ZN), CXCL10 (#K151UFK), IFNβ (#K151VIK); mouse CCL5 (#K152A2K) and CXCL10 (#K152UFK). Low concentrations of human IFNβ were determined using High‐Sensitivity IFNβ ELISA (#41415‐1; PBL Assay Science, Piscataway, NJ, USA). CCL5/CXCL10 levels in some experiments were quantified using R&D Systems (Minneapolis, MN, USA) ELISAs: human CCL5 (#DY278) or CXCL10 (#DY266); mouse CCL5 (#DY478).

[2] = Plasma protein binding, mouse; assay type: in vitro ADME; conditions: unbound/free fraction, read-out: PPB (% unbound) mouse
Method: as §1

In vivo mouse PK = test: In vivo mouse PK
Method: as §1

CYP3A4 = CYP3A4 (Homo sapiens, UniProt P08684); test: CYP inhibition; assay type: in vitro ADME
Method: as §1

[3] = Solubility (PBS, FaSSIF, SGF); assay type: physicochemical
Method: as §1

Shake flask LogD = assay type: physicochemical
Method: as §1

CYP3A4, sequence (P08684 whole entry): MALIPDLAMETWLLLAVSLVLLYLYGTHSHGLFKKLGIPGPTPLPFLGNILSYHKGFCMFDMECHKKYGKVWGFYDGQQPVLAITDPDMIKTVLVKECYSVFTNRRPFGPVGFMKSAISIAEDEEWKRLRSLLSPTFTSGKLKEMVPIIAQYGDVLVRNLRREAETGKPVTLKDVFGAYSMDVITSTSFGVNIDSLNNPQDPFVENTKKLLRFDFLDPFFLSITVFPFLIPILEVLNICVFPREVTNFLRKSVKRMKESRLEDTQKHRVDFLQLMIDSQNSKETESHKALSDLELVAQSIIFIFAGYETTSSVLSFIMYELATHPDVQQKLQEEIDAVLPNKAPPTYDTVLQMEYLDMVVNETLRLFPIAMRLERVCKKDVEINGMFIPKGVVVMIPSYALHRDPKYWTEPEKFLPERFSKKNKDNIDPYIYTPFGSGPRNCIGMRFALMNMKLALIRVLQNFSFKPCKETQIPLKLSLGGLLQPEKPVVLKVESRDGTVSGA

C[C@@H]1COCCN1c1cc(N2CCCC[C@@H]2C(F)(F)F)[nH]c(=O)c1 [SB02024]
GFP-2xFYVE puncta (autophagosome and endosome) formation in H1299 tumors (VPS34 activity): inhibited | fraction unbound [1]: 0.44 | IFNB1 expression (Me30966 cells): significantly increased | transcription of IFNB1 and ISGs IRF1, IRF7, IRF9 (B16-F10 cells): significantly increased | fraction unbound [2]: 0.14 | Vd (In vivo mouse PK; in vivo mouse PK): 2.53 L/kg | clearance (In vivo mouse PK; in vivo mouse PK): 26 mL/min/kg | half-life (In vivo mouse PK; in vivo mouse PK, read-out: t½ (converted)): 1.15 h | in vitro and in vivo clearance (in words) (In vivo mouse PK; mouse, in vivo): low | bioavailability (In vivo mouse PK; po, in vivo mouse PK): 96% | inhibition of CYP3A (in words) (CYP3A4): weak inhibition | inhibition at 10 µM (CYP3A4; human, 10 μM, 3A4, read-out: Highest CYP inhibition (%) @ 10 μM): 14% | solubility in both gastric and small intestinal pH media (in words) [3]: excellent | solubility ([3]; FaSSIF, pH 6.5, fassif, read-out: Solubility FaSSIF, pH 6.5): 890 µM (≈ 307 µg/mL) | solubility ([3]; PBS buffer, pH 7.4, aqueous buffer, read-out: Solubility in PBS buffer, pH 7.4): 175 µM (≈ 60.4 µg/mL) | solubility ([3]; SGF, pH 1.8, simulated gastric fluid, read-out: Solubility SGF, pH 1.8): 2150 µM (≈ 743 µg/mL) | logD (Shake flask LogD): 1.8
